Assays:
[1] = target: T1, recombinant human A3 adenosine receptors (Homo sapiens, UniProt P0DMS8); test: Radioligand binding, human A3 receptor ([125I]-AB-MECA), incl. one-point binding at 10 μM; details: read-out: Percent (%) Inhibition at 10 μM Antagonist, A3
T1 construct: expressed in transfected cells; host or cells: HEK 293
T1 sequence (P0DMS8 1-318): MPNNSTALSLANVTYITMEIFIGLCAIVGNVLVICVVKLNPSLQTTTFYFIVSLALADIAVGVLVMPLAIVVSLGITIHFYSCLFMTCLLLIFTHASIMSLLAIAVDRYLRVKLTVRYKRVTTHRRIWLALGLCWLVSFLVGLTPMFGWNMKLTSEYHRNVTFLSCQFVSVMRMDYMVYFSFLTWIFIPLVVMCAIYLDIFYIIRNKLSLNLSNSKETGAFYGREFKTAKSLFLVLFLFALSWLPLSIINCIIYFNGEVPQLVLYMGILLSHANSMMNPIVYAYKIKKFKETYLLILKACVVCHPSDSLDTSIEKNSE

[2] = system: open-chest, barbital-anesthetized dogs; test: Protocol II (preconditioning): four 5-minute occlusion/reperfusion cycles before 60-minute occlusion and 3 hours reperfusion in dogs; assay type: in vivo, dog
Method: Preconditioning was elicited by four 5-minute occlusion/5-minute reperfusion cycles produced 10 minutes before the 60-minute occlusion.

[3] = target: T2, recombinant canine A1 adenosine receptors (Canis lupus familiaris, UniProt P11616); test: Radioligand competition binding, canine A1 receptor (3H-CPX), transfected HEK 293 membranes
T2 construct: expressed in transfected cells
T2 sequence (P11616 1-326): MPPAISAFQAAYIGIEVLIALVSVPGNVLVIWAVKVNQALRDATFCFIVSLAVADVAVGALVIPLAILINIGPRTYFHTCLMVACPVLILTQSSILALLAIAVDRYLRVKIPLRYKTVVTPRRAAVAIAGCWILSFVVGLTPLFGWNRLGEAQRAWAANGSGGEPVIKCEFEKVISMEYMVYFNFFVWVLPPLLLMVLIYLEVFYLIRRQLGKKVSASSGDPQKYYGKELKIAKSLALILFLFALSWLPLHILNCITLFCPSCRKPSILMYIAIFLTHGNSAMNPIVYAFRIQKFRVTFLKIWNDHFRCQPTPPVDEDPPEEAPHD
Method: (§1) Membranes (40-70 μg membrane protein), radioligands, and varying concentrations of competing ligands were incubated in triplicate in 0.1 ml buffer HE plus 2 units/mL adenosine deaminase for 2.5 hours at 21° C. The radioligands used for competitive binding assays were: [^3H]-8-cyclopentyl-1,3-dipropyxanthine ([^3H]-DPCPX) (NEN, Boston, Mass.) for A1 and A2b adenosine receptors, [^3H]-4-(2-[7-amino-2-(furyl)(1,2,4)triazole(2,3-a)(1,3,5)triazin-5-ylaminoethyly)phenol ([^3H] ZM241385) for A2a adenosine receptors (Tocris, Bristol, UK), and [^125Iodine]-labeled N6-(4-aminobenzyl)-9-(5-(methylcarbonyl)-β-D-ribofuranosyl) adenine ([^125I]-AB-MECA) or [^3H]-R-N^6-phenylisopropyladenosine (H^3R]-R-PIA) for A3 adenosine receptors (both from NEN, Boston, Mass.). Nonspecific binding was measured in the presence of 10 μM 5′N ethylcarboxamidoadenosine (NECA, from RBI-Sigma, Natick, Mass.) for A1 and A2b receptors, or 10 μM xanthine amino congener (XAC, from RBI-Sigma, Natick, Mass.) for A2a receptors. Binding assays were terminated by filtration over Whatman GF/C glass fiber filters using a BRANDEL cell harvester (Gaithersburg, Md.).

[4] = target: T3, recombinant canine A2a adenosine receptors (Canis lupus familiaris, UniProt P11617); test: Radioligand competition binding, canine A2a receptor (3H-ZM 241385), transfected HEK 293 membranes; details: canine; mean ± SEM, n = 3; 3H-ZM 241385; read-out: Ki, A2a
T3 construct: expressed in transfected cells
Method: Membranes (40-70 μg membrane protein), radioligands, and varying concentrations of competing ligands were incubated in triplicate in 0.1 ml buffer HE plus 2 units/mL adenosine deaminase for 2.5 hours at 21° C. […] Nonspecific binding was measured in the presence of 10 μM 5′N ethylcarboxamidoadenosine (NECA, from RBI-Sigma, Natick, Mass.) for A1 and A2b receptors, or 10 μM xanthine amino congener (XAC, from RBI-Sigma, Natick, Mass.) for A2a receptors. Binding assays were terminated by filtration over Whatman GF/C glass fiber filters using a BRANDEL cell harvester (Gaithersburg, Md.).

[5] = target: T4, human A2B adenosine receptors (Homo sapiens, UniProt P29275); test: Radioligand competitive binding, human A2b receptor; parameters: expressed in transfected cells; host or cells: HEK-293; details: HEK 293 membranes
T4 sequence (P29275 1-332): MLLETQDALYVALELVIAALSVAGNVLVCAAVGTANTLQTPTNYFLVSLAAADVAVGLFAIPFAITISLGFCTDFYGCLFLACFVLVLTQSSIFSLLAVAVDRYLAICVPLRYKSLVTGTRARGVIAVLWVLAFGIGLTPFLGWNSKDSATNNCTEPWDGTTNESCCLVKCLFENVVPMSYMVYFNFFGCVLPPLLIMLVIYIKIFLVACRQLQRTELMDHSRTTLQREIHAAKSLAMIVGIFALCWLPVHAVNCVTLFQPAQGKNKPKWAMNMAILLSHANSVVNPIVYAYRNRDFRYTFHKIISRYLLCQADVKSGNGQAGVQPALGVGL
Method: Binding assays were terminated by filtration.
as §1

[6] = target: T4, human A2B adenosine receptors; test: FLIPR calcium functional assay, human A2b receptor in HEK-293 cells (5 μM NECA); assay type: cell-based; parameters: expressed in transfected cells; host or cells: HEK-293; details: HEK293 cells, null method
Method: Cells were seeded into 96-well tissue culture plates with black walls and clear bottoms, and cultured to an 80-0.90% confluent monolayer. Without removing the media, an equal volume of dye (from calcium assay kit purchased from Molecular Devices) was added. Cell plates were incubated for 1 hour at 37° C. and were then transferred to the-FLIPR unit (Molecular Devices).
For assay of recombinant human and rat A2b adenosine receptors, HEK-293 cells were incubated with increasing doses of agonist (5′N-ethylcarboxamidoadenosine, NECA) to determine the concentration of agonst that produced 50% of a maximum response.
The FLIPR integrates an argon laser excitation source, a 96-well pipettor, and a detection system utilizing a CCD (Charged Coupled Device) imaging camera. […] Fluorescence data were collected at 0.1-sec intervals before and after simultaneous rapid addition of compounds to the 96-well plate. Results were read as relative fluorescence units (RFU).
In FLIPR functional assays, agonist concentration-response curves were fitted to a logistic equation by use of the nonlinear regression program in Prizm GraphPad. […] A Schild analysis was performed to estimate the potency of the compounds as antagonists (pA2). […]

T3 sequence (P11617 whole entry): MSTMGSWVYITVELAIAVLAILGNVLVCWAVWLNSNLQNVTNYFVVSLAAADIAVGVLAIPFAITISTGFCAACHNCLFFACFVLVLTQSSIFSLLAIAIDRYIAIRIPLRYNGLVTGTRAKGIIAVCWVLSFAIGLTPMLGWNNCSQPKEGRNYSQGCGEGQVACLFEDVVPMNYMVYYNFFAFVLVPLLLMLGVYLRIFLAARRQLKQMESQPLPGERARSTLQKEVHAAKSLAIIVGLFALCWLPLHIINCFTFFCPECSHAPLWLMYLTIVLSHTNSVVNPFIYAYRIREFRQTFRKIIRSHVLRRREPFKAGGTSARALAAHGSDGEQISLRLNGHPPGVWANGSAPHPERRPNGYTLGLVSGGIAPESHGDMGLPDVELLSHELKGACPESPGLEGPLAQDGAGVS

CCCn1c(=O)c2[nH]c(C34CCC(CCC(=O)O)(CC3)CC4)nc2n(CCC)c1=O [BG 9928, 3-[4-(2,6-dioxo-1,3-dipropyl-2,3,6,7-tetrahydro-1H-purin-8-yl)-bicyclo[2.2.2]oct-1-yl]-propionic acid]
inhibition at 10 µM [1]: 30% | Addition to the protective effect of ischemic preconditioning ([2]; Protocol II): added to the protective effect | Relationship between infarct size and collateral blood flow compared to preconditioned control ([2]; Protocol II (preconditioning)): shifted downward further | Effect on the protective effects of ischemic preconditioning ([2]; Protocol II, 1 mg/kg i.v. bolus + 10 μg/kg/min): did not block | Ki [3]: 28.9 ± 4.1 nM | Ki [4]: 4310 nM | Ki [5]: 88.5 ± 21 nM | Kb [6]: 3.36 nM
